# Measurements from patent US6486096B1, “Herbicidal compositions with acylated aminophenylsulfonylureas” (priority 1998, dated 2002).
# Where two headings read alike, the source gives them in different places.
# What was measured:
# Format in all cases: in vivo
# corn = conditions: post-emergence
# Protocol: (§1) The herbicidal activity of the active substances or active substance mixtures was scored visually with the aid of the treated parcels in comparison with untreated control parcels. Damage to and development of all above-ground parts of plants was recorded here. Scoring was carried out on a percentage scale (100% action=all plants died; 50% action=50% of the plants and green plant parts died; 0% action=no discernible action=like control parcels. The mean of the scoring values of 4 parcels in each case was taken.
# (§2) Crop plants were raised outdoors under natural outdoor conditions on plots in which seeds or rhizome sections of typical harmful plants had been sown or the natural weed infestation was used. The treatment with the compositions according to the invention was carried out after the emergence of the harmful plants and the crop plants, as a rule in the 2 to 4-leaf stage; in some cases (as indicated) the application of individual active substances or active substance combinations was carried out pre-emergence (cf. Example 1) or as a sequence treatment, in some cases pre-emergence and/or post-emergence.
# (§3) After the application, e.g. 2, 4, 6 and 8 weeks after application, the action of the preparations was scored visually in comparison with untreated controls (cf. score in Example 1). […] The crop plants, however, were not damaged or were only insignificantly damaged as a result of the treatment with the herbicidal compositions.
# SIDSP = Sida spinosa = assay: Herbicidal action, visual scoring; conditions: post-emergence
# Protocol: as §1
# (§4) Seeds or rhizome pieces of monocotyledonous and dicotyledonous weeds are placed in sandy loam soil in pots, covered with soil and grown in the greenhouse under good growth conditions (temperature, humidity, water supply). Three weeks after sowing, the test plants in the three-leaf stage are treated with the compositions according to the invention. The compositions according to the invention which are formulated as wettable powders or as emulsion concentrates are sprayed in various dosages on the green parts of the plants at an application rate of 600 to 800 l of water/ha (converted). After the test plants have remained in the greenhouse for about 3 to 4 weeks under optimal growth conditions, the effect of the products is scored visually by comparison with untreated controls. When applied post-emergence, too, the compositions according to the invention have a good herbicidal activity against a broad spectrum of economically important grass weeds and broad-leaved weeds.
# as §2, §3
# [1] = test system: EPHHL = Euphorbia heterophylla; assay: Herbicidal action, visual scoring; conditions: Table 13, post-emergence, scoring 3 weeks after application, g of A.S./ha by row: r7 30, r8 100, r9 150, r10 30 + 50
# Protocol: as §1, §4, §2, §3
# [2] = test system: IPOPU = Ipomoea purpureum; assay: Herbicidal action, visual scoring; conditions: Table 3; post-emergence; scoring 6 weeks after application; g of A.S./ha 15, 30, 45, 60, 300, 30 + 300
# Protocol: as §1, §4, §2, §3
# [3] = test system: CHEAL = Chenopodium album; assay: Herbicidal action, visual scoring; conditions: Table 4; post-emergence; scoring 40 days after application; g of A.S./ha: 30, 45, 60, 300, 45 + 300
# Protocol: as §1, §4, §2, §3
# [4] = test system: POLCO = Polygonum convolvulus; assay: Herbicidal action, visual scoring; conditions: Table 4; post-emergence; scoring 40 days after application; g of A.S./ha: 30, 45, 60, 300, 45 + 300
# Protocol: as §1, with “taken. […]” for “taken.”
# as §2, §3
# [5] = test system: ECHCG = Echinochloa crus-galli; assay: Herbicidal action, visual scoring; conditions: Table 12, post-emergence, scoring 3 weeks after application, g of A.S./ha by row: r6 120, r7 60, r8 30, r9 15, r10 1000, r11 500, r12 250, r13 30 + 500, r14 30 + 250, r15 15 + 250, r16 40, r17 20, r18 10, r19 30 + 20, r20 15 + 20, r21 30 + 10, r22 200, r23 100, r24 50, r25 30 + 100, r26 15 + 100, r27 30 + 50
# Protocol: as §1, §4, §2, §3
# AGRRE = Agropyron repens = assay: Herbicidal action, visual scoring; conditions: Table 6, post-emergence, scoring 3 weeks after application, g of A.S./ha by row: r6 30, r7 45, r8 60, r9 2.5, r10 5, r11 7.5, r12 30 + 2.5, r13 30 + 5
# Protocol: as §1, §4, §2, §3
# [6] = Table 5, scoring 3 weeks after application, g of A.S./ha by row: r6 15, r7 30, r8 45, r9 60, r10 900, r11 30 + 900
# [7] = Table 3, scoring 6 weeks after application, g of A.S./ha 15, 30, 45, 60, 300, 30 + 300
smiles,measurement,setting,value
"CCCCCCCCSC(=O)Oc1cc(Cl)nnc1-c1ccccc1 [(B2.3.3), pyridate]",Damage on corn,corn; [6],0%
same,Herbicidal action against SIDSP,SIDSP = Sida spinosa; [6],10%
"CS(=O)(=O)c1ccc(C(=O)C2C(=O)CCCC2=O)c([N+](=O)[O-])c1 [(B1.4.4), 2-(4-Mesyl-2-nitrobenzoyl)cyclohexane-1,3-dione]",Herbicidal action EPHHL,[1]; 100 g of active substance per ha,63%
same,Herbicidal action EPHHL,[1]; 150 g of active substance per ha,73%
"N#Cc1cc(Br)c(O)c(Br)c1 [(B2.2.1), bromoxynil]",Damage on corn,corn; [7],0%
same,Damage on corn,"corn; Table 4, scoring 40 days after application, g of A.S./ha: 30, 45, 60, 300, 45 + 300",0%
same,Herbicidal action IPOPU,[2],53%
same,Herbicidal action CHEAL,[3],75%
same,Herbicidal action SIDSP,SIDSP = Sida spinosa; [7],70%
same,Herbicidal action POLC0,[4],45%
"CC(C)N.O=C(O)CNCP(=O)(O)O [(B3.2.1), glyphosate-isopropylammonium]",Herbicidal action ECHCG,[5]; 250 g active substance per ha,73%
same,Herbicidal action ECHCG,[5]; 500 g active substance per ha,83%
same,Herbicidal action ECHCG,[5]; 1000 g active substance per ha,98%
"COc1nc(C)nc(NC(=O)NS(=O)(=O)c2cc(I)ccc2C(=O)O)n1 [(B2.4.4), iodosulfuron]",Herbicidal action against AGRRE,AGRRE = Agropyron repens; 2.5 g of A.S./ha,0%
same,Herbicidal action against AGRRE,AGRRE = Agropyron repens; 5 g of A.S./ha,10%
